Among the data in patent US12570642B2, “GLP-IR modulating compounds” (Gilead Sciences, Inc., priority 2021, dated 2026) are EC50 values, retold here.

Sequence of GLP-1R (P43220 24-463): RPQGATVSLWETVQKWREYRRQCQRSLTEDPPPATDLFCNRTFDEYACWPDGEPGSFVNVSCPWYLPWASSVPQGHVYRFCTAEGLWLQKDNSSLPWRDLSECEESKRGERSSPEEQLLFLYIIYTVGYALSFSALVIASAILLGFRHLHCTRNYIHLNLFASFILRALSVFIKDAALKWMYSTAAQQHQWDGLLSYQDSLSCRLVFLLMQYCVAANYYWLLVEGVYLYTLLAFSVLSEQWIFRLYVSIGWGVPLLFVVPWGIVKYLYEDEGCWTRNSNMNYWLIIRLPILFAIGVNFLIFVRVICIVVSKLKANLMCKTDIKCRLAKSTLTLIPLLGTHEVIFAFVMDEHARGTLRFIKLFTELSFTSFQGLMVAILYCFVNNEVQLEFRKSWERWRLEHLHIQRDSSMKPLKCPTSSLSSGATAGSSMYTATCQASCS

The assay addresses GLP-1R (Homo sapiens, UniProt P43220). As to the kind of experiment: GLP-1R Activation - cAMP Assay. The assay is classed as cell-based. The note with it: cAMP increase in CHO cells stably expressing GLP-1R; each compound run on one of the two cAMP assays (Assay 1 or Assay 2, not specified). An outline of the steps: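 cAMP rise read by HTRF after 30 min agonist exposure (10-point titration, 37 °C) in HBSS/20 mM Hepes/0.1% BSA, following 1 h pre-incubation. Cells: stable GLP-1R CHO line, 1,000/well, seeded overnight. Sigmoidal fit of response vs log concentration gives EC50.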
(In general: Changes in cAMP serve as a functional read-out for many G protein-coupled receptors.)
Usually EC50 stands for the midpoint of the concentration-response curve. High values mean a need for much substance, low ones an effect from little substance. Take `CC1(C)COC[C@H]1n1c(Cc2cc(F)c(-c3cccc(OCc4ncc(Cl)cc4F)n3)cc2F)nc2c(F)cc(C(=O)O)cc21` [Example 287, (S)-2-(4-(6-((5-chloro-3-fluoropyridin-2-yl)methoxy)pyridin-2-yl)-2,5-difluorobenzyl)-1-(4,4-dimethyltetrahydrofuran-3-yl)-4-fluoro-1H-benzo[d]imidazole-6-carboxylic acid]: the midpoint of the response, the EC50, lay at 0.051 nM. Turning to `COc1cc(Cl)ncc1COc1cccc(-c2cc(F)c(Cc3nc4c(F)cc(C(=O)O)cc4n3[C@@H]3COCC3(C)C)cc2F)n1` [Example 288, (S)-2-(4-(6-((6-chloro-4-methoxypyridin-3-yl)methoxy)pyridin-2-yl)-2,5-difluorobenzyl)-1-(4,4-dimethyltetrahydrofuran-3-yl)-4-fluoro-1H-benzo[d]imidazole-6-carboxylic acid], the EC50 is 0.041 nM. Take `COCCn1c(Cc2cc(F)c(-c3cccc(OCc4cnc(Cl)cc4OC)n3)cc2F)nc2c(F)cc(C(=O)O)cc21` [Example 291, 2-(4-(6-((6-chloro-4-methoxypyridin-3-yl)methoxy)pyridin-2-yl)-2,5-difluorobenzyl)-4-fluoro-1-(2-methoxyethyl)-1H-benzo[d]imidazole-6-carboxylic acid]: a half-maximal response (EC50) required 0.076 nM. `COCCn1c(Cc2c(F)cc(-c3cccc(OCc4ccc(C#N)cc4F)n3)c(F)c2F)nc2c(F)cc(C(=O)O)cc21` [Example 292, 2-(4-(6-((4-cyano-2-fluorobenzyl)oxy)pyridin-2-yl)-2,3,6-trifluorobenzyl)-4-fluoro-1-(2-methoxyethyl)-1H-benzo[d]imidazole-6-carboxylic acid] returned an EC50 of 0.133 nM.

In turn, `CC1(C)COCC1n1c(Cc2c(F)cc(-c3cccc(OCc4ccc(C#N)cc4F)n3)c(F)c2F)nc2ccc(C(=O)O)cc21` (stereo not drawn) [Example 293, 2-(4-(6-((4-cyano-2-fluorobenzyl)oxy)pyridin-2-yl)-2,3,6-trifluorobenzyl)-1-(4,4-dimethyltetrahydrofuran-3-yl)-1H-benzo[d]imidazole-6-carboxylic acid] gave a half-maximal effective concentration (EC50) of 0.04 nM. With `COc1cc(Cl)ncc1COc1cccc(-c2cc(F)c(Cc3nc4ccc(C(=O)O)cc4n3C3COCC3(C)C)cc2F)n1` (stereo not drawn) [Example 294, 2-(4-(6-((6-chloro-4-methoxypyridin-3-yl)methoxy)pyridin-2-yl)-2,5-difluorobenzyl)-1-(4,4-dimethyltetrahydrofuran-3-yl)-1H-benzo[d]imidazole-6-carboxylic acid], the EC50 was 0.021 nM.

Molecule `CC1(C)COCC1n1c(Cc2cc(F)c(-c3cccc(OCc4cnc(Cl)cc4F)n3)cc2F)nc2ccc(C(=O)O)cc21` (stereo not drawn) [Example 295, 2-(4-(6-((6-chloro-4-fluoropyridin-3-yl)methoxy)pyridin-2-yl)-2,5-difluorobenzyl)-1-(4,4-dimethyltetrahydrofuran-3-yl)-1H-benzo[d]imidazole-6-carboxylic acid] showed a 50% effective concentration (EC50) of 0.042 nM.

The molecule `CC1(C)COCC1n1c(Cc2cc(F)c(-c3cccc(OCc4ncc(Cl)cc4F)n3)cc2F)nc2ccc(C(=O)O)cc21` (stereo not drawn) [Example 296, 2-(4-(6-((5-chloro-3-fluoropyridin-2-yl)methoxy)pyridin-2-yl)-2,5-difluorobenzyl)-1-(4,4-dimethyltetrahydrofuran-3-yl)-1H-benzo[d]imidazole-6-carboxylic acid] came in with an EC50 of 0.066 nM. Turning to `CC1(C)COC[C@H]1n1c(Cn2cc(F)c(-c3cccc(OCc4ccc(Cl)cc4)n3)cc2=O)nc2ccc(C(=O)O)cc21` [Example 297, (S)-2-((6-((4-chlorobenzyl)oxy)-5′-fluoro-2′-oxo-[2,4′-bipyridin]-1′(2′H)-yl)methyl)-1-(4,4-dimethyltetrahydrofuran-3-yl)-1H-benzo[d]imidazole-6-carboxylic acid], it took 0.151 nM to reach a half-maximal effect (EC50).
